Test results as given in ChEMBL document CHEMBL4507259 (2021).

How the values were obtained:
DU-145 = experiment: DU-145 Proliferation; type: functional, cell-based; settings: Homo sapiens
[1] = molecular target: Prostaglandin E2 receptor EP2 subtype (Homo sapiens) (UniProt P43116); experiment: EP2 (h) CEREP ligand profiling; settings: filed as agonist, Compound concentration 10.0 uM
[2] = molecular target: Substance-K receptor (Homo sapiens) (UniProt P21452); experiment: NK2 (h) CEREP ligand profiling; settings: filed as agonist, Compound concentration 10.0 uM
[3] = molecular target: Adenosine receptor A2a (Homo sapiens) (UniProt P29274); experiment: A2A (h) CEREP ligand profiling; settings: filed as agonist, Compound concentration 10.0 uM
[4] = molecular target: Endothelin-1 receptor (Homo sapiens) (UniProt P25101); experiment: ETA (h) CEREP ligand profiling; settings: filed as agonist, Compound concentration 10.0 uM
[5] = test system: Tyrosine-protein kinase ABL1 (Homo sapiens), P00519 [Q252H]; settings: Compound concentration 1000.0 nM
[6] = test system: Tyrosine-protein kinase ABL1 (Homo sapiens), P00519 [Y253F]; settings: Compound concentration 1000.0 nM
[7] = molecular target: Tyrosine-protein kinase ABL2 (Homo sapiens) (UniProt P42684); settings: Compound concentration 1000.0 nM
Tyrosine-protein kinase ABL2 (Homo sapiens), sequence (P42684 whole entry): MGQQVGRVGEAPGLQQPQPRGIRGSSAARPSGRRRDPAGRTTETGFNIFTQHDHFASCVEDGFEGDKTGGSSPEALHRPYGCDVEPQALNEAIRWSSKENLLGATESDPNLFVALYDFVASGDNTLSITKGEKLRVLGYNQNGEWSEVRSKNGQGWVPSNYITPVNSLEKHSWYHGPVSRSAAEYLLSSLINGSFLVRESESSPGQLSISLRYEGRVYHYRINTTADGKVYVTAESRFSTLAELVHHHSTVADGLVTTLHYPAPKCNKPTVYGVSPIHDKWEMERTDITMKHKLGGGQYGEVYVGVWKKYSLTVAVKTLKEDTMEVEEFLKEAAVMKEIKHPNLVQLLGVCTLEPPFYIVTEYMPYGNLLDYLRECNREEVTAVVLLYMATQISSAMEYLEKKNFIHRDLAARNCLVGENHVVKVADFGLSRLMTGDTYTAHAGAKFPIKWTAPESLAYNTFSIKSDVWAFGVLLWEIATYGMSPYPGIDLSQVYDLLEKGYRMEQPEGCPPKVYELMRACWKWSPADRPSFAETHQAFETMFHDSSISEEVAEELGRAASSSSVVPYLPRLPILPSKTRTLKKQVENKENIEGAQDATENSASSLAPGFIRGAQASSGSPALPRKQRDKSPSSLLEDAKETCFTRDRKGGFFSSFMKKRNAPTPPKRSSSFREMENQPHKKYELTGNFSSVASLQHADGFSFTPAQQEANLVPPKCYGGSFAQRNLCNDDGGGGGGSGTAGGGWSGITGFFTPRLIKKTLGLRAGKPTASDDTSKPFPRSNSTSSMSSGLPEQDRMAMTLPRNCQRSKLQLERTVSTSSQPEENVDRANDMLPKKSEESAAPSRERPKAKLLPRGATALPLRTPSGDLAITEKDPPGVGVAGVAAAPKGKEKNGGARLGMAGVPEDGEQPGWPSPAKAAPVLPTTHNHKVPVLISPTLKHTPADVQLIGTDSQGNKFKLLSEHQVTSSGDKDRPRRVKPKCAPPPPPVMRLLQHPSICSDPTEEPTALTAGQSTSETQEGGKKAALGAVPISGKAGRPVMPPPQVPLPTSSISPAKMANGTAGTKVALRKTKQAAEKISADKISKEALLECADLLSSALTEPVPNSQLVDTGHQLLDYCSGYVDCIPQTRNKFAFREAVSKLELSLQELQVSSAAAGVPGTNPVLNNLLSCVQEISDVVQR

[8] = molecular target: Bone morphogenetic protein receptor type-1A (Homo sapiens) (UniProt P36894); settings: Compound concentration 1000.0 nM
[9] = molecular target: Cyclin-dependent kinase-like 2 (Homo sapiens) (UniProt Q92772); settings: Compound concentration 1000.0 nM
[10] = molecular target: Dual specificity protein kinase CLK2 (Homo sapiens) (UniProt P49760); settings: Compound concentration 1000.0 nM
[11] = molecular target: Dual specificity protein kinase CLK3 (Homo sapiens) (UniProt P49761); settings: Compound concentration 1000.0 nM
[12] = molecular target: Casein kinase I isoform gamma-1 (Homo sapiens) (UniProt Q9HCP0); settings: Compound concentration 1000.0 nM
Casein kinase I isoform gamma-1 (Homo sapiens), sequence (Q9HCP0 whole entry, looked up, canonical isoform): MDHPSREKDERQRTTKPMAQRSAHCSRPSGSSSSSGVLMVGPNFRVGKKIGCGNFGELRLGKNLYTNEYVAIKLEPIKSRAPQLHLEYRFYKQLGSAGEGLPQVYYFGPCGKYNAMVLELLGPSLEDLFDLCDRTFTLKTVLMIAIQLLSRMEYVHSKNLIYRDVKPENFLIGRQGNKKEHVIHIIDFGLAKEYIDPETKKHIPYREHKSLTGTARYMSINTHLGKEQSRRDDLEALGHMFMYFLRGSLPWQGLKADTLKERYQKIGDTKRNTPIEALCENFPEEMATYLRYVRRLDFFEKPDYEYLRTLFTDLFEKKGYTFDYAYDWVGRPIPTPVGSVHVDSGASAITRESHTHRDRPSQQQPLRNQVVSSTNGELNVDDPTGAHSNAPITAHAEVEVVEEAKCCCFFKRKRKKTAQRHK

[13] = molecular target: Receptor tyrosine-protein kinase erbB-3 (Homo sapiens) (UniProt P21860); settings: Compound concentration 1000.0 nM
[14] = molecular target: Receptor tyrosine-protein kinase erbB-4 (Homo sapiens) (UniProt Q15303); settings: Compound concentration 1000.0 nM
[15] = molecular target: Mitogen-activated protein kinase 1 (Homo sapiens) (UniProt P28482); settings: Compound concentration 1000.0 nM
[16] = molecular target: Serine/threonine-protein kinase ICK (Homo sapiens) (UniProt Q9UPZ9); settings: Compound concentration 1000.0 nM
Serine/threonine-protein kinase ICK (Homo sapiens), sequence (Q9UPZ9 whole entry): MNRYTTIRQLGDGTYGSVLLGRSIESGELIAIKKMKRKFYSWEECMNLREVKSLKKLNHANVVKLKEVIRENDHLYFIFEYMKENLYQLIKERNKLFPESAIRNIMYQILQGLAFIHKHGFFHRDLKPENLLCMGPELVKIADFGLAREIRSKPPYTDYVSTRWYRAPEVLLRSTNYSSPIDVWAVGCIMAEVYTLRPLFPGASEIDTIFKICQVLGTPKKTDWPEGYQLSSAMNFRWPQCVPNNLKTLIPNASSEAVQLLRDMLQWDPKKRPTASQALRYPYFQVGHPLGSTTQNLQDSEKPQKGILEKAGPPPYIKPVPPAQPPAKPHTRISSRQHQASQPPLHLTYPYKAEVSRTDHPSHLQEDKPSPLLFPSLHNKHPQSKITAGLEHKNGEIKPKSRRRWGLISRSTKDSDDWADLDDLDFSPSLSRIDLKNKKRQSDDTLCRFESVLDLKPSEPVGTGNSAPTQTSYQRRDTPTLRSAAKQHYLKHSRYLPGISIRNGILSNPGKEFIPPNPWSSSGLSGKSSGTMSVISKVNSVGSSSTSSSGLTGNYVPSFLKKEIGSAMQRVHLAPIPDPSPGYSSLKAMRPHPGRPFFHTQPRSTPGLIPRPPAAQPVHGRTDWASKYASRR

[17] = molecular target: Insulin receptor-related protein (Homo sapiens) (UniProt P14616); settings: Compound concentration 1000.0 nM
[18] = test system: Mast/stem cell growth factor receptor Kit (Homo sapiens), P10721 [D816V]; settings: Compound concentration 1000.0 nM
[19] = molecular target: LIM domain kinase 2 (Homo sapiens) (UniProt P53671); settings: Compound concentration 1000.0 nM
[20] = molecular target: Serine/threonine-protein kinase STK11 (Homo sapiens) (UniProt Q15831); settings: Compound concentration 1000.0 nM
[21] = molecular target: MAP kinase-activated protein kinase 5 (Homo sapiens) (UniProt Q8IW41); settings: Compound concentration 1000.0 nM
[22] = molecular target: Tyrosine-protein kinase Mer (Homo sapiens) (UniProt Q12866); settings: Compound concentration 1000.0 nM
[23] = molecular target: Serine/threonine-protein kinase mTOR (Homo sapiens) (UniProt P42345); settings: Compound concentration 1000.0 nM
[24] = molecular target: Serine/threonine-protein kinase Nek10 (Homo sapiens) (UniProt Q6ZWH5); settings: Compound concentration 1000.0 nM
Serine/threonine-protein kinase Nek10 (Homo sapiens), sequence (Q6ZWH5 whole entry): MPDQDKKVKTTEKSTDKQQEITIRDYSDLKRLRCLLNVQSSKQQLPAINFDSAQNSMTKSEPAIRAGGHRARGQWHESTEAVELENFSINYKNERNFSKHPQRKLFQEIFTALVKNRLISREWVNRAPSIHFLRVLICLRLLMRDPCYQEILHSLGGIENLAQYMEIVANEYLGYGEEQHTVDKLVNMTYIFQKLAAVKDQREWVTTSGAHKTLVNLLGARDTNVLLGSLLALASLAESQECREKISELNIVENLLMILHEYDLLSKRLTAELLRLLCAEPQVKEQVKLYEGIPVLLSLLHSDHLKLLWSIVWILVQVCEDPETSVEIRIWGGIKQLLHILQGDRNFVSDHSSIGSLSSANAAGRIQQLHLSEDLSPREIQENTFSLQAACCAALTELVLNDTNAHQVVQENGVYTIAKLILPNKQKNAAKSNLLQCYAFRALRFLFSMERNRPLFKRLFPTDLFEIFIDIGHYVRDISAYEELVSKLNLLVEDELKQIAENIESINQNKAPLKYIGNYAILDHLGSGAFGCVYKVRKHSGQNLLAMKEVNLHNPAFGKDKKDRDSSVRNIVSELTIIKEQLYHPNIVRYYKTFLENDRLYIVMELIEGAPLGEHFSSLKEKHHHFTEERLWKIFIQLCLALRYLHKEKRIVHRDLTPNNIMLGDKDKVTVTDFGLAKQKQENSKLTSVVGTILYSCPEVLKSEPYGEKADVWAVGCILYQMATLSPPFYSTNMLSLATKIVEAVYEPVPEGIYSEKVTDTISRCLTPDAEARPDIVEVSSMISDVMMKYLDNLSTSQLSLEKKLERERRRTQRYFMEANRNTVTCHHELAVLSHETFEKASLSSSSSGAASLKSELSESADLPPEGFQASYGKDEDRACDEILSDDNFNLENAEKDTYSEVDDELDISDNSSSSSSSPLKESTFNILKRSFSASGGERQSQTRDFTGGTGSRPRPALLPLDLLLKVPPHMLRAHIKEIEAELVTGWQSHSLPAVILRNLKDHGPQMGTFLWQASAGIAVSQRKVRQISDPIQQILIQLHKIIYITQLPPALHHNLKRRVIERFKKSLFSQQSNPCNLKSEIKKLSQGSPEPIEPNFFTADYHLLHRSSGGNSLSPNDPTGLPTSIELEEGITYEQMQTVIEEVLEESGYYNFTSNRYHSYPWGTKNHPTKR

[25] = molecular target: Serine/threonine-protein kinase Nek2 (Homo sapiens) (UniProt P51955); settings: Compound concentration 1000.0 nM
[26] = test system: Phosphatidylinositol 4,5-bisphosphate 3-kinase catalytic subunit alpha isoform (Homo sapiens), P42336 [I800L]; settings: Compound concentration 1000.0 nM
[27] = molecular target: Protein kinase C epsilon type (Homo sapiens) (UniProt Q02156); settings: Compound concentration 1000.0 nM
[28] = molecular target: Serine/threonine-protein kinase RIO1 (Homo sapiens) (UniProt Q9BRS2); settings: Compound concentration 1000.0 nM
[29] = molecular target: Serine/threonine-protein kinase RIO2 (Homo sapiens) (UniProt Q9BVS4); settings: Compound concentration 1000.0 nM
[30] = molecular target: Ribosomal protein S6 kinase alpha-4 (Homo sapiens) (UniProt O75676); settings: Compound concentration 1000.0 nM
[31] = molecular target: Ribosomal protein S6 kinase alpha-6 (Homo sapiens) (UniProt Q9UK32); settings: Compound concentration 1000.0 nM
[32] = molecular target: NUAK family SNF1-like kinase 2 (Homo sapiens) (UniProt Q9H093); settings: Compound concentration 1000.0 nM
[33] = molecular target: Serine/threonine-protein kinase TBK1 (Homo sapiens) (UniProt Q9UHD2); settings: Compound concentration 1000.0 nM
Serine/threonine-protein kinase TBK1 (Homo sapiens), sequence (Q9UHD2 whole entry): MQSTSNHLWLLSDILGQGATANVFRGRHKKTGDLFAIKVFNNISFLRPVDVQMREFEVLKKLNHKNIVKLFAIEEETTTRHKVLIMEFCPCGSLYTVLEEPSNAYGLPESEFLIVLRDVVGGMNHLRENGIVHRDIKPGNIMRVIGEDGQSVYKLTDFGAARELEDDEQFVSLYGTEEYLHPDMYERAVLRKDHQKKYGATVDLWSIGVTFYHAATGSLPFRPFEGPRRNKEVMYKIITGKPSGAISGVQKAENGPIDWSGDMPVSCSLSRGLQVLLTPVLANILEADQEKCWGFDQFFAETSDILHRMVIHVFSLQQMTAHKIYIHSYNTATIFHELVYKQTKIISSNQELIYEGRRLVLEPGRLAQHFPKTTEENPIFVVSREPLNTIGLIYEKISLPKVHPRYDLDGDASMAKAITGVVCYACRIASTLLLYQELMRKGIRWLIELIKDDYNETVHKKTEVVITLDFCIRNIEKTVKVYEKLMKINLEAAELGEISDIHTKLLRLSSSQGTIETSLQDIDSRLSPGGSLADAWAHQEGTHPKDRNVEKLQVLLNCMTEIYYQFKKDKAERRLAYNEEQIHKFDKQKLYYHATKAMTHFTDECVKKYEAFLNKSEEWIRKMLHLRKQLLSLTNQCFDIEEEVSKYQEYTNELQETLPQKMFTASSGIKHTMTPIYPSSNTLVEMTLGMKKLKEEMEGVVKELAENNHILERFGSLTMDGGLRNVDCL

[34] = molecular target: Serine/threonine-protein kinase tousled-like 2 (Homo sapiens) (UniProt Q86UE8); settings: Compound concentration 1000.0 nM
Serine/threonine-protein kinase tousled-like 2 (Homo sapiens), sequence (Q86UE8 whole entry, looked up): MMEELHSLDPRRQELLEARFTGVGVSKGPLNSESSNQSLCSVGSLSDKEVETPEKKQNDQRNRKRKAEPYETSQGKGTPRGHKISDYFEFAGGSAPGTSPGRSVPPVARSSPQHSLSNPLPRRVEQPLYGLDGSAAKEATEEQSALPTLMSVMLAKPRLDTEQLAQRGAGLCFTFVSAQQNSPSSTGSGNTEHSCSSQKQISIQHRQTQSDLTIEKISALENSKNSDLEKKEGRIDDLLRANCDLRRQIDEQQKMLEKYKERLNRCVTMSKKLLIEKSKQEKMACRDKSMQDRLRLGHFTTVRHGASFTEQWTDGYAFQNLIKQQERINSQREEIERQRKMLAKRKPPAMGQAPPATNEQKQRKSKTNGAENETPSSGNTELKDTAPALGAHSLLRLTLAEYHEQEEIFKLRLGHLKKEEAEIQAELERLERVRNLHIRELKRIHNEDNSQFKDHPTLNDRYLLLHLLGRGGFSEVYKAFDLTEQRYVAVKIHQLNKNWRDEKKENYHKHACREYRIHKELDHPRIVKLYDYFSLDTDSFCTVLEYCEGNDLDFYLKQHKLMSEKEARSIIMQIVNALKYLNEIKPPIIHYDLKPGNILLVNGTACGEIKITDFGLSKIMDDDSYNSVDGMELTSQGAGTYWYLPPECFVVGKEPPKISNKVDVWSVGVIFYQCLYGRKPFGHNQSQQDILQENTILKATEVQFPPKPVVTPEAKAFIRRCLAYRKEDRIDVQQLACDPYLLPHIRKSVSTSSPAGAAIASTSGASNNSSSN

[35] = molecular target: Serine/threonine-protein kinase VRK2 (Homo sapiens) (UniProt Q86Y07); settings: Compound concentration 1000.0 nM
[36] = molecular target: Wee1-like protein kinase (Homo sapiens) (UniProt P30291); settings: Compound concentration 1000.0 nM
[37] = molecular target: Serine/threonine-protein kinase 25 (Homo sapiens) (UniProt O00506); settings: Compound concentration 1000.0 nM
[38] = molecular target: 5-hydroxytryptamine receptor 2B (Homo sapiens, UniProt P41595); settings: Compound concentration 10.0 uM
[39] = molecular target: Alpha-2C adrenergic receptor (Homo sapiens) (UniProt P18825); settings: Compound concentration 10.0 uM

| Structure (SMILES) | IC50 (DU-145) | inhibition [1] [%] | inhibition [2] [%] | inhibition [3] [%] | inhibition [4] [%] | residual activity [5] [%] | residual activity [6] [%] | residual activity [7] [%] | residual activity [8] [%] | residual activity [9] [%] | residual activity [10] [%] | residual activity [11] [%] | residual activity [12] [%] | residual activity [13] [%] | residual activity [14] [%] | residual activity [15] [%] | residual activity [16] [%] | residual activity [17] [%] | residual activity [18] [%] | residual activity [19] [%] | other results |
| --- | --- | --- | --- | --- | --- | --- | --- | --- | --- | --- | --- | --- | --- | --- | --- | --- | --- | --- | --- | --- | --- |
| CNC(=O)Nc1ccc2c(c1)CC[C@@]21OC(=O)N(CC(=O)N(Cc2ccc(F)cc2)[C@@H](C)C(F)(F)F)C1=O [A-485] | > 10 µM (not active) | 27 | 18 | 7 | 3 | 81 | 81 | 88 | 91 | 100 | 97 | 83 | 94 | 89 | 100 | 91 | 72 | 96 | 70 | 88 | residual activity [20]: 100%; residual activity [21]: 82%; residual activity [22]: 82%; residual activity [23]: 92%; residual activity [24]: 81%; residual activity [25]: 100%; residual activity [26]: 83%; residual activity [27]: 22%; residual activity [28]: 100%; residual activity [29]: 67%; residual activity [30]: 72%; residual activity [31]: 81%; residual activity [32]: 74%; residual activity [33]: 83%; residual activity [34]: 100%; residual activity [35]: 91%; residual activity [36]: 80%; residual activity [37]: 99%; inhibition [38]: 81.4%; inhibition [39]: 20.7% |
| CNC(=O)Nc1ccc2c(c1)[C@@]1(CC2)OC(=O)N(CC(=O)N(Cc2ccc(F)cc2)[C@@H](C)C(F)(F)F)C1=O [A-486] | > 10 µM (not active) | 10 | 12 | -1 | -1 | 97 | 100 | 84 | 100 | 83 | 100 | 84 | 78 | 81 | 100 | 91 | 67 | 100 | 96 | 90 | residual activity [20]: 100%; residual activity [21]: 86%; residual activity [22]: 100%; residual activity [23]: 100%; residual activity [24]: 91%; residual activity [25]: 100%; residual activity [26]: 63%; residual activity [27]: 99%; residual activity [28]: 100%; residual activity [29]: 83%; residual activity [30]: 88%; residual activity [31]: 82%; residual activity [32]: 77%; residual activity [33]: 84%; residual activity [34]: 100%; residual activity [35]: 97%; residual activity [36]: 100%; residual activity [37]: 100%; inhibition [38]: 29.2%; inhibition [39]: 8.88% |
